Measured values reported in US20080031866A1, “METHOD FOR MODULATING THE PHARMACOKINETICS AND METABOLISM OF A THERAPEUTIC AGENT” (priority 2006, published 2008).

Columns and labels:
[1] = Oral gavage pharmacokinetics, jugular and portal vein sampling, first pass metabolism; type: in vivo, rat; settings: for AUC: po, 75 mg/kg; for AUC / concentration at 0 h / concentration at 0.08 h / concentration at 0.25 h / concentration at 0.33 h / concentration at 0.5 h / concentration at 0.67 h / concentration at 1 h / concentration at 1.25 h / concentration at 1.5 h / concentration at 2 h / concentration at 3 h / concentration at 4 h / concentration at 6 h / concentration at 12 h / concentration at 24 h / Cmax: rats N=4; for Cmax: read-out: Cmax average ± standard deviation
Method: Two separate IV studies were carried out using two separate lots of animals. IV-A was run on the same lot of animals as the oral gavage study and IV-B was run on the same lot of animals as the intraduodenal and intra-colonic studies.
(§1) For the oral gavage dosing, Compound 1 was prepared in neat PEG-400. For the intraduodenal and intracolonic dosing solutions, Compound 1 was added to neat Tween 80, the mixture was sonicated for thirty minutes at 45° C. until Compound 1 was completely dissolved and then deionized (DI) water was added to form a solution consisting of 20% Tween 80 and 80% DI water by weight.
For the IV and oral gavage dosing (sampling at jugular and portal vein), young adult male Sprague Dawley rats weighing 250-400 g were purchased from Hilltop Lab Animals Inc. All rat experiments were conducted under approved animal protocols. The rats for the oral gavage dosing were catheterized at Hilltop Lab Animals Inc, had two chronic catheters for sampling: jugular and portal, were housed in cages of Culex™ Automated Blood Sampler (ABS) and blood samples were collected simultaneously via both cannula and were controlled by the Culex™ ABS control software.
(§2) A quantitative method for determining the amount of (6,7-dimethoxy-2,4-dihydro-indeno[1,2-c]pyrazol-3-yl)-(3-fluoro-phenyl)-amine Compound 1 and its major metabolites, glucuronide A (Cpd 1-GluA) and glucuronide B (Cpd 1-GluB) (see Scheme A) in rat plasma was developed using phenacetin as an internal standard. [drawing 1]
(§3) The two glucuronide conjugates were prepared and purified to permit accurate quantification of the levels of intact parent Compound 1 versus Cpd 1-GluA and Cpd 1-GluB. Each standard curve for Compound 1, Cpd 1-GluA, and Cpd 1-GluB generated from rat plasma included ten concentration levels. […] The quantitative procedure for each sample included: sample preparation, HPLC separation and mass spectrometry detection.
(§4) The rat plasma was prepared using protein precipitation techniques. Reference standards and quality control samples in rat plasma for Compound 1 were transferred to a 96 deep-well plate. The precipitation solution contained 100 ng/ml of internal standard in acetonitrile. 300 μl of precipitation solution were added to 100 μl of each standard, quality control and plasma sample. Samples were vortexed for 10 mins, then centrifuged at 4500 RPM for 10 mins. 10 μl of each sample were injected for LC/MS/MS analysis.
(§5) The HPLC column chosen for the bioanalysis was purchased from Thermo Electron (Hypersil BetaBasic C18, 5 cm×2.1 mm). The eluting solvents were composed of Solvent A: 0.1% formic acid in H2O and Solvent B: 0.1% formic acid in acetonitrile. A step gradient was used and flow rate was 300 μl/min. The total run time was 3.2 mins. Solvent B was increased from 35% at 0 min to 75% at 2.1 mins and decreased back to 35% at 2.2 mins. The retention times for Compound 1, phenacetin, Cpd 1-GluA and Cpd 1-GluB were 1.1 min, 0.9 min, 1.3 min, and 1.6 min, respectively.
API3000 with a Turbo Ionspray interface from Applied Biosystems was used for the detection of Compound 1, the internal standard and major metabolites. Electrospray ionization was performed in the positive ion mode heated nebulizer with a temperature of 300° C. LC/MS/MS chromatograms were acquired in MRM (multiple reaction mode). The MRM transitions for Compound 1, the internal standard, Cpd 1-GluA and Cpd 1-GluB were from 326.3 to 190.6, 181.1 to 110.3, 502.2 to 368.3 and 502.2 to 326.4, respectively. […]

[2] = Intraduodenal dosing with and without β-glucuronidase, catheterized rat; type: in vivo; settings: for Increase in AUC with β-glucuronidase: with vs no enzyme; for AUC / Cmax / concentration at 0 h / concentration at 0.25 h / concentration at 0.5 h / concentration at 1 h / concentration at 2 h / concentration at 3 h / concentration at 4 h / concentration at 5 h / concentration at 6 h / AUC average ± standard deviation 0 to 6 hours / Cmax average ± standard deviation: 10 mg/kg, rats N=6; for AUC: read-out: AUC average ± standard deviation 0 to 6 hours; for Cmax: read-out: Cmax average ± standard deviation; for concentration at 0 h / concentration at 0.25 h / concentration at 0.5 h / concentration at 1 h / concentration at 2 h / concentration at 3 h / concentration at 4 h / concentration at 5 h / concentration at 6 h: other: intraduodenal
Method: A catheterized rat model was used in which the agent alone or agent and β-glucuronidase enzyme was administered intraduodenally or intracolonically. The intraduodenal and intracolonic dosing was intended to prevent the potential for loss of enzymatic activity when orally dosing the β-glucuronidase (e.g. by degradation in the stomach). […]
as §1
For the oral enzyme solutions, β-glucuronidase was added to the final formulation at a concentration of 57,600 units/ml.
For the intraduodenal and intracolonic dosing, male Sprague Dawley rats weighing 300-400 g were purchased from Charles River Labs. All rat experiments were conducted under approved animal protocols. The rats were catheterized at Charles River Labs and had one or more of the following chronic catheters for dosing and sampling: jugular/carotid, duodenal, and colonic. Rats were limited to only one GI catheter and one vascular catheter. For IV dosing, rats were purchased with jugular and carotid catheters for dosing in the jugular catheter and blood sampling through the carotid catheter. For intraduodenal/intracolonic dosing, rats had one of the GI catheters for dosing and a carotid catheter for blood sampling.
The surgeries were done two weeks prior to start of testing. Rats were fed 4 hours post dose administration. All rats were dosed without anesthesia and sacrificed at the end of the study.
as §2, §3, §4, §5
API3000 with a Turbo Ionspray interface from Applied Biosystems was used for the detection of Compound 1, the internal standard and major metabolites. Electrospray ionization was performed in the positive ion mode heated nebulizer with a temperature of 300° C. LC/MS/MS chromatograms were acquired in MRM (multiple reaction mode). […]

[3] = male, Sprague Dawley, rat, plasma (jugular vein sample), Compound 1 75 mg/kg oral gavage, jugular sample
[4] = male, Sprague Dawley, rat, plasma (portal vein sample), Compound 1 75 mg/kg oral gavage, portal sample
[5] = male, Sprague Dawley, rat, portal vein plasma, Compound 1 75 mg/kg oral gavage, portal sample
[6] = male, Sprague Dawley, rat, plasma, Compound 1 10 mg/kg intraduodenal with β-glucuronidase
[7] = male, Sprague Dawley, rat, plasma, Compound 1 10 mg/kg intraduodenal without enzyme
[8] = Compound 1 10 mg/kg intraduodenal with β-glucuronidase
[9] = Compound 1 10 mg/kg intraduodenal without enzyme

COc1cc2c(cc1OC)-c1n[nH]c(Nc3cccc(F)c3)c1C2 [Compound 1, (6,7-dimethoxy-2,4-dihydro-indeno[1,2-c]pyrazol-3-yl)-(3-fluoro-phenyl)-amine]
Local absorption ratio (Fa) ([1]; Compound 1 75 mg/kg oral, Equation (2)): 48±18% | Hepatic recovery ratio (Fh) ([1]; Equation (3)): 40% | Extent of first pass metabolism ([1]; gut): 52% | Extent of first pass metabolism ([1]; liver): 60% | AUC ([1]; male, Sprague Dawley, rat, plasma (jugular vein sample), Compound 1 75 mg/kg oral gavage, jugular sample, read-out: AUC average ± standard deviation 0 to 24 hours): 2340 ng·h/mL | AUC ([1]; male, Sprague Dawley, rat, plasma (jugular vein sample), Compound 1 75 mg/kg oral gavage, jugular sample, read-out: AUC average ± standard deviation 0 to infinite hours): 2410 ng·h/mL | concentration at 0 h [1, 3]: 6.7 ng/mL | concentration at 0.08 h [1, 3]: 447 ng/mL | concentration at 0.25 h [1, 3]: 2120 ng/mL | concentration at 0.33 h [1, 3]: 1770 ng/mL | concentration at 0.5 h [1, 3]: 1220 ng/mL | concentration at 0.67 h [1, 3]: 626 ng/mL | concentration at 1 h [1, 3]: 442 ng/mL | concentration at 1.25 h [1, 3]: 465 ng/mL | concentration at 1.5 h [1, 3]: 409 ng/mL | concentration at 2 h [1, 3]: 378 ng/mL | concentration at 3 h [1, 3]: 127 ng/mL | concentration at 4 h [1, 3]: 61.3 ng/mL | concentration at 6 h [1, 3]: 51.1 ng/mL | concentration at 12 h [1, 3]: 22.8 ng/mL | concentration at 24 h [1, 3]: 7.7 ng/mL | Cmax [1, 3]: 2120 ng/mL | concentration at 0.67 h [1, 4]: 2300 ng/mL | concentration at 1 h [1, 4]: 346 ng/mL | concentration at 1.25 h [1, 4]: 972 ng/mL | concentration at 1.5 h [1, 4]: 465 ng/mL | concentration at 2 h [1, 4]: 1880 ng/mL | concentration at 3 h [1, 4]: 336 ng/mL | concentration at 4 h [1, 4]: 398 ng/mL | concentration at 6 h [1, 4]: 1010 ng/mL | concentration at 12 h [1, 4]: 250 ng/mL | bioavailability ([1]; male, Sprague Dawley, rat, plasma, Compound 1 75 mg/kg oral, read-out: Systemic oral bioavailability): 19 ± 5% | Tmax ([1]; male, Sprague Dawley, rat, plasma, rats, Compound 1 75 mg/kg oral gavage): 15 min | AUC ([1]; male, Sprague Dawley, rat, portal vein plasma, Compound 1 75 mg/kg oral gavage, portal sample, read-out: AUC average ± standard deviation 0 to 24 hours): 11900 ng·h/mL | AUC ([1]; male, Sprague Dawley, rat, portal vein plasma, Compound 1 75 mg/kg oral gavage, portal sample, read-out: AUC average ± standard deviation 0 to infinite hours): 12500 ng·h/mL | concentration at 0 h [1, 5]: 2.4 ng/mL | concentration at 0.08 h [1, 5]: 7520 ng/mL | concentration at 0.25 h [1, 5]: 4250 ng/mL | concentration at 0.33 h [1, 5]: 3880 ng/mL | concentration at 0.5 h [1, 5]: 873 ng/mL | concentration at 24 h [1, 5]: 224 ng/mL | Cmax [1, 5]: 8690 ng/mL | Plasma level of Compound 1 relative to level of the metabolites ([1]; oral administration): 6% | Increase in AUC with β-glucuronidase ([2]; intraduodenal 10 mg/kg): 2.9 fold | Increase in AUC with β-glucuronidase ([2]; intraduodenal): 294% | AUC [2, 6]: 177 ± 55 ng·h/mL | Cmax [2, 6]: 129 ± 41 ng/mL | AUC [2, 7]: 60 ± 18 ng·h/mL | Cmax [2, 7]: 75 ± 30 ng/mL | concentration at 0 h [2, 6]: 0 ng/mL | concentration at 0.25 h [2, 6]: 129 ± 41.4 ng/mL | concentration at 0.5 h [2, 6]: 107 ± 26.6 ng/mL | concentration at 1 h [2, 6]: 75.6 ± 35 ng/mL | concentration at 2 h [2, 6]: 21.2 ± 12.5 ng/mL | concentration at 3 h [2, 6]: 12.9 ± 4.3 ng/mL | concentration at 4 h [2, 6]: 9.5 ± 3.1 ng/mL | concentration at 5 h [2, 6]: 3.7 ± 6.3 ng/mL | concentration at 6 h [2, 6]: 1.7 ± 2.7 ng/mL | concentration at 0 h [2, 7]: 0 ng/mL | concentration at 0.25 h [2, 7]: 75.2 ± 30.3 ng/mL | concentration at 0.5 h [2, 7]: 55.1 ± 15.5 ng/mL | concentration at 1 h [2, 7]: 18.7 ± 5.9 ng/mL | concentration at 2 h [2, 7]: 3.2 ± 0.6 ng/mL | concentration at 3 h [2, 7]: 1.5 ± 0.9 ng/mL | concentration at 4 h [2, 7]: 1.6 ± 0.7 ng/mL | concentration at 5 h [2, 7]: 0 ng/mL | concentration at 6 h [2, 7]: 0 ng/mL | Tmax ([2]; male, Sprague Dawley, rat, plasma, intraduodenal 10 mg/kg, unchanged with or without enzyme): 30 min | AUC average ± standard deviation 0 to 6 hours [2, 8]: 177.4 ± 55.3 ng·h/mL | Cmax average ± standard deviation [2, 8]: 129.4 ± 41.1 ng/mL | AUC average ± standard deviation 0 to 6 hours [2, 9]: 60.3 ± 17.8 ng·h/mL | Cmax average ± standard deviation [2, 9]: 76.0 ± 29.0 ng/mL
